Results on 99 compounds are retold here after ChEMBL document CHEMBL3507680, “University of Dundee, Gates Library screen for HepG2 cell viability”.

This series can be described thus: Human HepG2 cell viability assay in 384 well format. The format is toxicity, cell-based. More on the design: dose 125 nL, time 70.5 hour; concentration not given beside the values. The settings on record: HepG2 cells, read-out: Inhibition.
As to `O=C(O)Cn1nc(C2CC2)c2c(-c3cccs3)ccnc21`, the cytotoxicity at 70.5 h is 25.1%.
Turning to `CC(C)C(=O)NCCNC(=O)C(C)OCC(F)(F)F` (centres undefined), the cytotoxicity at 70.5 h was -8.9%.
For the compound `CNC(=O)c1cnc(/C=C/c2cc(OC)c(OC)c(OC)c2)s1`, the cytotoxicity at 70.5 h was 3.41%.
As to `Cc1cnn(CCC(=O)N2CCN(C(=O)C3CC3)[C@@H]3CS(=O)(=O)C[C@@H]32)c1`, the cytotoxicity at 70.5 h is -5.71%.
As for `CCn1cnnc1CNC(=O)N1CCCCCC1`, the cytotoxicity at 70.5 h was -2.16%.
Consider `CCOc1ncccc1NC(=O)c1cccs1`, for which the cytotoxicity at 70.5 h is -10.3%.
The value for `CN(C)C[C@@H]1CN(C(=O)Cc2cccc(O)c2)C[C@@H]1CO` was -7.03%; that for `CCOc1cccc(C(=O)N(CCC#N)Cc2ccccn2)c1` was -0.366%.
For the compound `O=C(CN1CCOC1=O)N1CCC2(CCc3ccccc32)CC1`, the cytotoxicity at 70.5 h was found to be 7.69%.
Take `O=C(O)c1cn2cc(C(F)(F)F)ccc2n1`: the cytotoxicity at 70.5 h stood at 2.77%.
As for `CC(NC(=O)NCCN1CCCCCC1=O)c1ccc(Cl)s1` (centres undefined), the cytotoxicity at 70.5 h is -10.6%.
For `CNS(=O)(=O)c1ccc(CNC(=O)c2cc(C)no2)cc1`, the cytotoxicity at 70.5 h was -11.9%.
As for `O=C1CCCC2(CCN(C(=O)c3cnccn3)CC2)N1`, the cytotoxicity at 70.5 h is -4.91%.
On to `COc1ccc(C(=O)Nc2nncs2)cn1`, for which the cytotoxicity at 70.5 h amounted to 27.2%.
For the compound `Cc1nc(CN2C[C@@H]3OCCN(c4ncc(F)cn4)[C@@H]3C2)cs1`, the cytotoxicity at 70.5 h was -11.3%.
Consider `COCc1ccc(CN2CCC(O)(Cn3ccc4ncccc43)CC2)o1`, for which the cytotoxicity at 70.5 h is -8.64%.
Turning to `Cn1c(Cn2ccnc2)nnc1C1CCN(C(=O)c2ccncc2)CC1`, the cytotoxicity at 70.5 h is -5.75%.
Turning to `Cc1ccc(C(=O)N2C[C@H]3CCC[C@@]3(COCc3cccnc3)C2)s1`, the cytotoxicity at 70.5 h was -12%.
On to `CN(C)C1CCN(C(=O)Cc2csc(-c3ncccn3)n2)CC1`, for which the cytotoxicity at 70.5 h came to 0.448%.
Regarding `Cn1cc(N2CCC(NC(=O)c3ccccc3Cl)C2=O)cn1` (centres undefined), the cytotoxicity at 70.5 h was 1.26%.
As to `Cn1cc(C2CCCN2CCCc2nc(-c3cccs3)no2)cn1` (centres undefined), the cytotoxicity at 70.5 h was -11.4%.
`CC(=O)N1CCc2c(nc(N(C)C)nc2NCc2cccs2)C1`: the cytotoxicity at 70.5 h is -4.81%.
The value for `O=C(O)c1cc2c(c(S(=O)(=O)N(CCCO)c3ccccc3)c1)CCC2` was -10.1%; that for `Cc1cc(C(=O)NC2(c3ccc(Br)cc3)CC2)n(C)n1` was 6.63%; that for `CCn1cc(NC(=O)C2CCN(Cc3nc(C)c(C)o3)CC2)cn1` was -11.4%.
Next, `CC(=O)N1CCC(Cc2nccnc2-c2c(C)n[nH]c2C)C1` (centres undefined): -8.33%; `CCc1noc(CN(CC)Cc2cc3cc(C)ccc3[nH]c2=O)n1`: -10.7%; `CC(C)n1ccnc1C1CCCN(Cc2ccc(F)c(F)c2)C1` (centres undefined): 38%.
`CC(C)CN1Cc2nc(N3CCC(O)CC3)ncc2C1=O`: the cytotoxicity at 70.5 h was found to be 12.9%.
In the case of `COC(=O)CNC(=O)CSCc1nc(O)c2c(C)c(C)sc2n1`, the cytotoxicity at 70.5 h is -18.2%.
Consider `Cc1cc(CN2CCc3nc(N4CCOCC4)nc(O)c3CC2)c(C)s1`, for which the cytotoxicity at 70.5 h was -0.651%.
In the case of `CCn1cc(CN2CCCN(C(=O)CCc3nccs3)CC2)cn1`, the cytotoxicity at 70.5 h was -12.4%.
Regarding `CNC(=O)C(C)(C)N1CCC[C@H]1C(=O)NC1CC1`, the cytotoxicity at 70.5 h is -9.14%.
Regarding `CCC(CO)N(Cc1ccco1)Cc1c(C)nn(C)c1Cl` (centres undefined), the cytotoxicity at 70.5 h turned out to be 3.17%.
With `CCOc1ccc2cc(C(=O)N3CCn4c(CC)nnc4C3)[nH]c2c1`, the cytotoxicity at 70.5 h is -8.2%.
In the case of `Cc1c2ncn(CC(=O)c3ccccc3)c(=O)c2nn1C`, the cytotoxicity at 70.5 h was -3.76%.
Regarding `CSC1(CNC(=O)N(C)Cc2sccc2C)CCOCC1`, the cytotoxicity at 70.5 h amounted to 29.3%.
On to `Fc1cccc(CN2CCC[C@H](Cn3nnc(-c4ccccn4)n3)C2)c1`, for which the cytotoxicity at 70.5 h is -4.05%.
Turning to `OC1(CN2CCCC2)CCCN(c2ncnc3[nH]cnc23)C1` (centres undefined), the cytotoxicity at 70.5 h is -2.89%.
`O=C(Nc1cnccn1)[C@@H]1COC[C@H]2CN(c3ncc(F)cn3)C[C@H]21`: the cytotoxicity at 70.5 h was -4.35%.
`CCNC(=O)[C@@H]1C[C@H](NC(=O)Cc2ccsc2)CN1Cc1ccc(C)o1`: the cytotoxicity at 70.5 h was -8.83%.
The value for `O=C(NCCn1ccnc1)N1CCCC1c1ccc2c(c1)OCCO2` (centres undefined) was -4.48%; that for `Cc1c(C(=O)NC(C)C)nnn1-c1cccc(C(F)(F)F)c1` was -4.53%; that for `CN(Cc1nccs1)c1nc(-c2ccccn2)nc2c1CCNCC2` was -4.75%.
Regarding `COc1cc(N2C[C@H]3CN(C(=O)c4cnccn4)C[C@H]3C2)ncn1`, the cytotoxicity at 70.5 h is -2.87%.
`CC1(C)CC(N(Cc2ccccc2)Cc2c[nH]cn2)CC(C)(C)N1`: the cytotoxicity at 70.5 h was determined as 2.11%.
Next, `O=C(O)c1ccccc1-c1ccc(CNC(=O)C2CCOCC2)cc1`: -4.99%; `Cc1cc(CN2CCC=C(CN(C)C(=O)c3ccco3)C2)no1`: -7.11%; `CC(C)(C)c1ccc(OCC(=O)O)c(CN2C[C@H]3C[C@H](O)C[C@H]3C2)c1`: 2.38%.
As to `Cc1cc(C(=O)N2CCCC(n3ccnc3)C2)c(C)n1C1CC1` (centres undefined), the cytotoxicity at 70.5 h was 1.06%.
`Cc1ccccc1NC(=O)CNC(C)COc1ccccc1` (centres undefined): the cytotoxicity at 70.5 h was -9.44%.
As to `Cc1cnn(CC2CCCN2Cc2ncc(-c3ccc(F)cc3)o2)c1` (centres undefined), the cytotoxicity at 70.5 h was found to be 24%.
With `CCN(CC)CC1CN(Cc2c(C)noc2C)Cc2nccn2C1` (centres undefined), the cytotoxicity at 70.5 h was -4.28%.
On to `Clc1ccc(-n2cc(CNC3CCc4ncnn4C3)cn2)cc1` (centres undefined), for which the cytotoxicity at 70.5 h is -12.4%.
Regarding `CN(C)C(=O)CCC1CCCN(Cc2cccc(-c3ccccn3)c2)C1` (centres undefined), the cytotoxicity at 70.5 h was 12.2%.
The value for `O=C(CN1CCCC1Cn1cccn1)NCCOc1cccc(F)c1` (centres undefined) was -0.693%; that for `CC(=O)c1nn(-c2ccccc2Cl)c(C)c1C(C)=O` was -10.3%; that for `COCCc1noc(CN(C)C2CCCN(c3ccc(C)nn3)C2)n1` (centres undefined) was 24.4%.
Regarding `O=C(C1CCOc2ccccc21)N1CCOc2ccc(F)cc21` (centres undefined), the cytotoxicity at 70.5 h is -9.88%.
With `c1cc(C2CCN(c3ncnc4c3CCNCC4)CC2)ccn1`, the cytotoxicity at 70.5 h is -10.9%.
The value for `NCC1(c2cccc(C(F)(F)F)c2)CCOCC1` was -3.44%; that for `COc1ccc(Nc2nc(N)c(C(C)=O)s2)cc1OC` was -12.7%; that for `CN(C)c1cc(CNC(=O)c2cnccn2)ccn1` was -8.01%.
The value for `Cc1nccn1CC1CCCN1S(=O)(=O)Cc1ccccc1` (centres undefined) was -22.1%; that for `COc1cccc(CN2CC[C@H](c3nnc(-c4ccco4)o3)C2)c1` was 10.6%.
Regarding `O=C(CCc1ccccn1)N1CCc2cc(Cl)cc(Cl)c2C1`, the cytotoxicity at 70.5 h stood at 29.3%.
On to `CC(=O)c1ccc(NC(=O)NCc2cccc(N(C)C)n2)cc1C`, for which the cytotoxicity at 70.5 h was -1.51%.
On to `Cc1cc2nc(C(C)C)cc(N(C)CC3CCN(C(C)C)C3)n2n1` (centres undefined), for which the cytotoxicity at 70.5 h worked out at 28%.
Next, `NC(=O)c1cn[nH]c1C1CCCN1C(=O)c1ccccc1` (centres undefined): -5.37%.
As for `O=C(c1cnn2ccccc12)N1CCCC(OCc2ccccn2)C1` (centres undefined), the cytotoxicity at 70.5 h was -6.94%.
Regarding `Cc1noc(CN2Cc3ccccc3CC2c2nnc(C)o2)n1` (centres undefined), the cytotoxicity at 70.5 h was 4.3%.
As for `O=C(Cn1cccnc1=O)NCCc1ccc2c(c1)OCCO2`, the cytotoxicity at 70.5 h was 5.28%.
Take `CCc1nc(CN2CC(C(=O)OC)O[C@H](C)C2)cs1` (some centres undefined): the cytotoxicity at 70.5 h is -8.81%.
Next, `COc1ccc(CN2CCC(c3nccnc3-n3ccnc3)CC2)cc1`: -5.25%; `CC(=O)N1Cc2ccnn2CC(C(=O)NCc2cccnc2)C1` (centres undefined): -6.11%; `CN(Cc1nccn1CC(F)(F)F)C(=O)c1cccc(N(C)C)c1`: 0.768%.
Regarding `CCS(=O)(=O)N1CCCC2(COCCN(c3nnc(C)o3)C2)C1` (centres undefined), the cytotoxicity at 70.5 h was -1.84%.
Regarding `Cc1ccc(C(=O)NCCCNc2ccc(C(F)(F)F)cn2)cc1`, the cytotoxicity at 70.5 h was -9.05%.
`C[C@@H]1CN(C2CCN(Cc3cnc(-c4cccs4)nc3)CC2)C[C@H](C)O1`: the cytotoxicity at 70.5 h was 1.06%.
In the case of `CC1CN(C)c2ccccc2CN1C(=O)CSc1ccncc1` (centres undefined), the cytotoxicity at 70.5 h was found to be 1.51%.
Next, `CC(C)(C)S(=O)(=O)CCNC(=O)NCCCc1cccc(F)c1`: 29%; `Cc1cnn(CC2CCCN2Cc2nc(N)c3ccccc3n2)c1` (centres undefined): 45.2%; `Cc1nc(C2CCCN(S(C)(=O)=O)C2)sc1Br` (centres undefined): -0.507%.
As for `CCOC(=O)c1coc(N2CCN(Cc3cc(C)cc(C)c3)C(=O)C2)n1`, the cytotoxicity at 70.5 h was -5.18%.
Consider `O=C([C@H]1C[C@H]2OCC[C@H]2N(C(=O)c2ccncc2)C1)N1CCCCO1`, for which the cytotoxicity at 70.5 h was found to be 3.71%.
With `COc1cccc(CN(C)C(C)c2ccon2)c1OCCn1ccnc1` (centres undefined), the cytotoxicity at 70.5 h is -19.9%.
Take `CCc1cnc(CN(C)C2CCN(CC3CCC3)C2)o1` (centres undefined): the cytotoxicity at 70.5 h amounted to 8.96%.
Regarding `O=C(CCc1cccc(Cl)c1Cl)N1CCOCC1c1ncon1` (centres undefined), the cytotoxicity at 70.5 h is -1.88%.
Next, `Cc1cc2c(c(-c3cncc(C(=O)N4CCCC4)n3)c1)OC(CN)C2` (centres undefined): -6.51%; `CN(C)CCOc1ccc(CNC(=O)c2cccc(Cl)c2Cl)cc1`: 8.38%; `CCc1ccc(CC)c(NCc2cnc(N3CCOCC3)nc2)c1`: -2.91%.
`COc1ccccc1N1CCC(CNS(=O)(=O)c2c(C)nn(C)c2C)C1` (centres undefined): the cytotoxicity at 70.5 h was 2.25%.
On to `Cn1cccc1CN1CCC2(CC1)CCN(C(=O)c1cnccn1)CC2`, for which the cytotoxicity at 70.5 h was 10.8%.
Turning to `CNC(=O)c1ccc(C2CCCN(C(=O)c3c(C)noc3C)C2)nc1` (centres undefined), the cytotoxicity at 70.5 h was -7.86%.
The value for `O=C(c1cn2cc(Cl)ccc2n1)N1CCC(CCn2cccn2)CC1` was 19.9%; that for `COc1cc(N2CCN(Cc3ccsc3)C(CCO)C2)nc(N)n1` (centres undefined) was 9.1%.
For `Cc1ccc(CN2CCC3(CC2)C(=O)Nc2ccccc23)s1`, the cytotoxicity at 70.5 h is -7.74%.
With `NC(=O)C1CCCN(Cc2ccc(C(=O)Nc3cnns3)cc2)C1` (centres undefined), the cytotoxicity at 70.5 h came out at 5.24%.
For `CC(C)COC(C)C(=O)NCc1cc(F)cc(F)c1` (centres undefined), the cytotoxicity at 70.5 h was -13.3%.
